Assay type in all cases: biochemical
Assay [1] concerns the target T1, hepsin (Homo sapiens, UniProt P05981).
T1 construct: purchased R&D Systems 4776-SE-010
Briefly: Fluorogenic kinetic enzyme inhibitor assay, hepsin. The settings on record: read-out: Hepsin IC50.

Assay [2] concerns the target Thrombin (Homo sapiens, UniProt P00734). Briefly: Fluorogenic assay, thrombin.
Assay [3] has as its target T2, matriptase (Homo sapiens, UniProt Q9Y5Y6).
T2 construct: purchased R&D Systems 3946-SEB-010
T2 sequence (Q9Y5Y6 615-855 limits assumed): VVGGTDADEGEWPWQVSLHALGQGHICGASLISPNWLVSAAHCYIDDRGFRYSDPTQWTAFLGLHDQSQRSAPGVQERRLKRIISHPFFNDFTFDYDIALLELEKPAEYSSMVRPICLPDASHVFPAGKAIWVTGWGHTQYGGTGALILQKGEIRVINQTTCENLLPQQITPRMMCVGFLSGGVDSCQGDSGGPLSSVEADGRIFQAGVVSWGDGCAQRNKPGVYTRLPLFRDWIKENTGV
In words: Fluorogenic kinetic enzyme inhibitor assay, matriptase.

Assay [4] addresses T3, HGFA (Homo sapiens, UniProt Q04756).
T3 construct: purchased R&D Systems 1514-SE-010
T3 sequence (Q04756 408-655 limits assumed): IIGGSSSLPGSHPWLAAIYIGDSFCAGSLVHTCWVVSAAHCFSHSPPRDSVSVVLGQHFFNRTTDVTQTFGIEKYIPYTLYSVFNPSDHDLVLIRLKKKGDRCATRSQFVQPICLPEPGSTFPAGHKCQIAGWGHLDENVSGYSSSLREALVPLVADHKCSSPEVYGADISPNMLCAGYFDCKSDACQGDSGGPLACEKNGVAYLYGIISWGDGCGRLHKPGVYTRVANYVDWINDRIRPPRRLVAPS
T3 sequence (Q04756 373-407 partner limits assumed): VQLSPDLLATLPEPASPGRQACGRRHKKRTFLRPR
Briefly: Fluorogenic kinetic enzyme inhibitor assay, HGFA. The note with it: read-out: HGFA IC50.

Assay [5] concerns the target TMPRSS2 (Homo sapiens, UniProt O15393). Briefly: Fluorogenic kinetic enzyme inhibitor assay, TMPRSS2. Also noted: purchased Cusabio Technology CSB-YP023924HU. The note with it: read-out: TMPRSS2 IC50.
Assay [6] addresses T4, Factor Xa (Homo sapiens, UniProt P00742).
T4 construct: TMPRSS2; Matriptase; Hepsin; HGFA; Thrombin; Factor Xa
Briefly: Fluorogenic assay, Factor Xa. The note with it: read-out: Factor Xa IC50.

The mark [7] stands for this setting: 30 min incubation, Boc-QAR-AMC at Km.
The mark [8] stands for this setting: 30 min incubation, Boc-QAR-AMC at Km, read-out: Matriptase IC50.
[9] abbreviates: 30 min incubation, Boc-QLR-AMC at Km.

Where two headings read alike, the source gives them in different places. Numbered stars: 1 amine (or outer) side, 2 acyl side, 3 side chain; on linkers, the order of the positions; unused ones are H or OH. Square brackets hold non-standard residues; d marks the D form. Peptide text beside a SMILES is read from it. X1 = N=C(N)NCCC[C@H](N[*:1])C(=O)c1nc2ccc(C(=O)[*:2])cc2s1

T4 sequence (P00742 235-488 limits assumed): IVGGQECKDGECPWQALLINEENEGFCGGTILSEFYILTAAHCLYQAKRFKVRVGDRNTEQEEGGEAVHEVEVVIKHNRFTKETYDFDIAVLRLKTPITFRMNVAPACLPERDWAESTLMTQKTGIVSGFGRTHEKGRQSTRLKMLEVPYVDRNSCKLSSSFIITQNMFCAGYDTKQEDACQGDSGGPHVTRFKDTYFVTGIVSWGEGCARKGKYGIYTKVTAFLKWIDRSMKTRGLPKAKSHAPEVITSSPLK
T4 sequence (P00742 41-179 partner limits assumed): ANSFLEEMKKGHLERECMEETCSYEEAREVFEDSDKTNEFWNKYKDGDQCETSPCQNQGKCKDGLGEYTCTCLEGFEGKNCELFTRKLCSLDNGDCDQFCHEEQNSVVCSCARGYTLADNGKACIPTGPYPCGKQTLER
T1 sequence (P05981 163-417 limits assumed): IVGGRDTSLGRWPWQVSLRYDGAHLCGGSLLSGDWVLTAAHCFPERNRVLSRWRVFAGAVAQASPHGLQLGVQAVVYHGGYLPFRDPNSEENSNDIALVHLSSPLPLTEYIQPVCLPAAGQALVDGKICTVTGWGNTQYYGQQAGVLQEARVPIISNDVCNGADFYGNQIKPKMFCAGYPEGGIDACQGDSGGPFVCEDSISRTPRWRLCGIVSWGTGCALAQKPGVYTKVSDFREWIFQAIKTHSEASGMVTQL
T1 sequence (P05981 1-162 partner limits assumed): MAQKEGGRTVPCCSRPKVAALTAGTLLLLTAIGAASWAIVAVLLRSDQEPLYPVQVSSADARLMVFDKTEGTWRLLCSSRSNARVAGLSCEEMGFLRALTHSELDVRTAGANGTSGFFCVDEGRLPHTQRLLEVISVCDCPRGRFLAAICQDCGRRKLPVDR
Chain of TMPRSS2 (O15393 106-492 limits assumed): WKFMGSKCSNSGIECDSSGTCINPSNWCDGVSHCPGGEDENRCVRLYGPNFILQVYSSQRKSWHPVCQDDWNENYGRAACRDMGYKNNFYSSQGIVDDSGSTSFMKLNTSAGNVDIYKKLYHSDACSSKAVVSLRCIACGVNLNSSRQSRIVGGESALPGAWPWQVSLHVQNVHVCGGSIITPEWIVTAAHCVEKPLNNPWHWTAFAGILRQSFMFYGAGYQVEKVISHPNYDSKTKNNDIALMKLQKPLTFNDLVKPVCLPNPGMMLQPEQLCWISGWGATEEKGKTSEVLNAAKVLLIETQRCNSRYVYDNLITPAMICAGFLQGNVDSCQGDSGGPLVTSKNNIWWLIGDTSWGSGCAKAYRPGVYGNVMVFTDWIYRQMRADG

In general, IC50 refers to the midpoint of a concentration-inhibition curve. For `CN(C)[C@@H](CCC(N)=O)C(=O)N[C@@H](Cc1ccccc1)C(=O)N[C@@H](CCCNC(=N)N)C(=O)c1nc2ccccc2s1` [CA1041-2, N-[(S)-1-[N-(S)-1-[(1,3-benzothiazol-2-yl)carbonyl]-4-guanidinobutylcarbamoyl]-2-phenylethyl](S)-2-(dimethylamino)glutaramide], the IC50 was 1.89 nM in assay [1]; above 20000 nM in assay [2]; 3.5 nM in assay [3] (read-out: Matriptase IC50); 609 nM in assay [4]; 0.86 nM in assay [5]; 3300 nM in assay [6].
Regarding `CC(=O)N[C@H](Cc1c[nH]c2ccccc12)C(=O)N[C@@H](CC(C)C)C(=O)N[C@@H](CCCNC(=N)N)C(=O)c1nc2ccccc2s1` [PK-1-91, N-[(S)-1-[(1,3-benzothiazol-2-yl)carbonyl]-4-guanidinobutyl](S)-2-[(R)-2-acetylamino-3-(3-indolyl)propionylamino]-4-methylvaleramide], the IC50 turned out to be 1.6 nM in assay [1]; 9370 nM in assay [2]; 39 nM in assay [3] (read-out: Matriptase IC50); 104 nM in assay [4]; 0.026 nM in assay [5]; 1440 nM in assay [6].
For `N=C(N)NCCC[C@H](NC(=O)[C@H](Cc1ccccc1)NC(=O)[C@H](CCC(N)=O)NCCc1ccccc1)C(=O)c1nc2ccccc2s1` [CA1033-2, N-[(S)-1-[N-(S)-1-[(1,3-benzothiazol-2-yl)carbonyl]-4-guanidinobutylcarbamoyl]-2-phenylethyl](S)-2-(phenethylamino)glutaramide], the IC50 in assay [1] came to 0.3 nM; in assay [2], 10200 nM; in assay [3] (read-out: Matriptase IC50) it was 2.81 nM; in assay [4] it was 48.5 nM; in assay [5], 0.316 nM; in assay [6], 1060 nM.
`CC(=O)N[C@H]1Cc2ccc(cc2)OCCCC[C@@H](C(=O)N[C@@H](CCCNC(=N)N)C(=O)c2nc3ccccc3s2)NC(=O)[C@H](CC(C)C)NC1=O` [VD4072, N-[(S)-1-[(1,3-benzothiazol-2-yl)carbonyl]-4-guanidinobutyl]-(7S,10S,13S)-13-acetylamino-10-isobutyl-9,12-dioxo-2-oxa-8,11-diazabicyclo[13.2.2]nonadeca-1(17),15,18-triene-7-carboxamide]: the 50% inhibitory concentration (IC50) is 0.91 nM in assay [1] (setting [7]); above 20000 nM in assay [2]; 32 nM in assay [3] (setting [8]); 40 nM in assay [4] (setting [9]); 9.79 nM in assay [5] (setting [7]); 2650 nM in assay [6].
Take `N=C(N)NCCC[C@@H](NC(=O)[C@H](Cc1ccccc1)NC(=O)[C@H](CCC(N)=O)NCCc1ccccc1)C(=O)c1nc2ccccc2s1` [CA1033-1, N-[(S)-1-[N-(R)-1-[(1,3-benzothiazol-2-yl)carbonyl]-4-guanidinobutylcarbamoyl]-2-phenylethyl](S)-2-(phenethylamino)glutaramide]: the IC50 in assay [1] was 9.43 nM; in assay [2], above 20000 nM; in assay [3] (read-out: Matriptase IC50), 77.9 nM; in assay [4] it was 2870 nM; in assay [5] it was 16.6 nM; in assay [6], 16800 nM.
`N=C(N)NCCC[C@@H](NC(=O)[C@H](Cc1ccccc1)NC(=O)[C@H](CCC(N)=O)N1CCCCC1)C(=O)c1nc2ccccc2s1` [CA1046-1, N-[(S)-1-[N-(R)-1-[(1,3-benzothiazol-2-yl)carbonyl]-4-guanidinobutylcarbamoyl]-2-phenylethyl](S)-2-piperidinoglutaramide]: the IC50 in assay [1] was 105 nM; in assay [2] it was above 20000 nM; in assay [3] (read-out: Matriptase IC50) it was 1780 nM; in assay [4], above 20000 nM; in assay [5], 69.2 nM; in assay [6], 12200 nM.
With `CC(=O)N[C@H]1CCCCn2cc(nn2)C[C@H](C(=O)N[C@@H](CCCNC(=N)N)C(=O)c2nc3ccccc3s2)NC(=O)[C@H](CC(C)C)NC1=O` [VD4118B, N-[(S)-1-[(1,3-benzothiazol-2-yl)carbonyl]-4-guanidinobutyl]-(6S,9S,12R)-6-acetylamino-9-isobutyl-7,10-dioxo-1,8,11,15,16-pentaazabicyclo[12.2.1]heptadeca-14(17),15-diene-12-carboxamide], the half-inhibitory concentration (IC50) was 137 nM in assay [1] (setting [7]); above 20000 nM in assay [2]; 91.2 nM in assay [3] (setting [8]); 10900 nM in assay [4] (setting [9]); 14.9 nM in assay [5] (setting [7]); 9540 nM in assay [6].
As for `CN(C)[C@@H](CCC(N)=O)C(=O)N[C@@H](Cc1ccccc1)C(=O)N[C@H](CCCNC(=N)N)C(=O)c1nc2ccccc2s1` [CA1041-1, N-[(S)-1-[N-(R)-1-[(1,3-benzothiazol-2-yl)carbonyl]-4-guanidinobutylcarbamoyl]-2-phenylethyl](S)-2-(dimethylamino)glutaramide], the IC50 in assay [1] was 123 nM; in assay [2], above 20000 nM; in assay [3] (read-out: Matriptase IC50), 144 nM; in assay [4], above 20000 nM; in assay [5], 18.4 nM; in assay [6] it was 7010 nM.
For `CCC(C)[C@H](NC(C)=O)C(=O)N[C@@H](CCC(N)=O)C(=O)N[C@@H](C)C(=O)N[C@@H](CCCNC(=N)N)C(=O)c1nc2ccccc2s1` (stereo partly drawn) [MM3178, N-[(S)-1-[N-(S)-1-[(1,3-benzothiazol-2-yl)carbonyl]-4-guanidinobutylcarbamoyl]ethyl](S)-2-[(2S)-2-acetylamino-3-methylvalerylamino]glutaramide], the IC50 is 1.25 nM in assay [1]; above 20000 nM in assay [2]; 0.1 nM in assay [3]; above 20000 nM in assay [4]; 0.227 nM in assay [5]; 170 nM in assay [6].
`N=C(N)NCCC[C@H](NC(=O)[C@H](Cc1ccccc1)NC(=O)[C@H](CCC(N)=O)NC(=O)c1ccccc1)C(=O)c1nc2ccccc2s1` [CA1043]: the half-inhibitory concentration (IC50) was 0.11 nM in assay [1]; above 20000 nM in assay [2]; 0.88 nM in assay [3] (read-out: Matriptase IC50); 8.45 nM in assay [4]; 0.081 nM in assay [5]; 1590 nM in assay [6].
Turning to `CC(=O)N[C@@H](CCCCN)C(=O)N[C@@H](CCC(N)=O)C(=O)N[C@@H](Cc1ccccc1)C(=O)N[C@@H](CCCNC(=N)N)C(=O)c1nccs1` [ZFH6101, N-[(S)-1-[N-(S)-4-guanidino-1-[(1,3-thiazol-2-yl)carbonyl]butylcarbamoyl]-2-phenylethyl](S)-2-[(S)-1-acetylamino-5-aminopentylcarbonylamino] glutaramide], the IC50 was 1.2 nM in assay [1]; above 20000 nM in assay [2]; 1.4 nM in assay [3]; 116 nM in assay [4]; 28.9 nM in assay [5]; 158 nM in assay [6].
As for `CC(=O)N[C@@H](CO)C(=O)N[C@H](Cc1c[nH]c2ccccc12)C(=O)N[C@@H](CC(C)C)C(=O)N[C@@H](CCCNC(=N)N)C(=O)c1nc2ccc(C(=O)N[C@H](C(N)=O)C(C)C)cc2s1` [JH1114, N-[(S)-1-carbamoyl-2-methylpropyl]-2-[(S)-2-[(S)-2-[(R)-2-[(S)-2-acetylamino-3-hydroxypropionylamino]-3-(3-indolyl)propionylamino]-4-methylvalerylamino]-5-guanidinovaleryl]-1,3-benzothiazole-6-carboxamide] (Ac-S[dW]L[X1]V-NH2), the IC50 amounted to 1.8 nM in assay [1]; 3880 nM in assay [2]; 231 nM in assay [3]; 57.4 nM in assay [4]; 1280 nM in assay [6].
With `CC(=O)N[C@@H](CO)C(=O)NCc1cccc(CC(=O)N[C@@H](CC(C)C)C(=O)N[C@@H](CCCNC(=N)N)C(=O)c2nc3ccccc3s2)c1` [MM1132-2, N-[(S)-1-[(1,3-benzothiazol-2-yl)carbonyl]-4-guanidinobutyl](S)-2-{[(m-{[(S)-2-acetylamino-3-hydroxypropionylamino]methyl}phenyl)methyl]carbonylamino}-4-methylvaleramide], the IC50 in assay [1] came out at 0.326 nM; in assay [2] it was 9440 nM; in assay [3] (read-out: Matriptase IC50), 31 nM; in assay [4], 209 nM; in assay [6], 1890 nM.
As for `CC(=O)N[C@H](Cc1c[nH]c2ccccc12)C(=O)N[C@@H](CCCCNC(=N)N)C(=O)N[C@@H](CCC(C)C)C(=O)N[C@@H](CCCNC(=N)N)C(=O)c1nc2ccccc2s1` [JH1140-2, N-[(S)-1-[(1,3-benzothiazol-2-yl)carbonyl]-4-guanidinobutyl](S)-2-[(S)-1-[(R)-2-acetylamino-3-(3-indolyl)propionylamino]-5-guanidinopentylcarbonylamino]-5-methylhexanamide], the IC50 in assay [1] was 0.45 nM; in assay [2], above 20000 nM; in assay [3], 0.46 nM; in assay [4], 4.84 nM; in assay [6] it was 9.12 nM.

Source of the values: patent US20250171495A1, “MUTLI-TARGETED SERINE PROTEASE INHIBITORS FOR TREATMENT OF CANCER AND VIRAL INFECTION” (Washington University, priority 2023, published 2025).
